Measurements: PubChem BioAssay AID284 (DTP/NCI, 2004)
Values joined by “and” are separate entries in the source; they are usually repeats but may differ in a detail not shown here. Equal values may be shown once. Inconclusive results and toxic doses are left out.

Test system: BDF1 mice, L1210/MTX-resistant leukemia ip, survival T/C
Assay: NCI In Vivo Anticancer Drug Screen. Data for tumor model L1210 Leukemia resistant to Methotrexate; NSC 740 (intraperitoneal) in B6D2F1 (BDF1) mice
Conditions: endpoint: mean survival time, higher = longer survival
Description: The antitumor activity of compounds was measured in mice bearing transplantable tumors. Survival or tumor size were measured and the results are expressed as the measurement made in the treated group (T) divided by the measurement made in the vehicle treated control group (C). The tumor model used in this assay is L1210 Leukemia resistant to Methotrexate; NSC 740 (intraperitoneal) in B6D2F1 (BDF1) mice

[1] = dose: 7.5 mg/kg/injection, schedule: Q01DX Z (ip), vehicle: carboxymethylcellulose (CMC)
[2] = dose: 10.0 mg/kg/injection, schedule: Q01DX Z (ip), vehicle: carboxymethylcellulose (CMC)
[3] = dose: 15.0 mg/kg/injection, schedule: Q01DX Z (ip), vehicle: carboxymethylcellulose (CMC)

CN(Cc1cnc2nc(N)nc(N)c2n1)c1ccc(C(=O)N[C@@H](CCC(=O)O)C(=O)O)cc1
T/C (dose: 0.19 mg/kg/injection, schedule: Q01DX010 (ip), vehicle: other): 95 % of control | T/C (dose: 0.38 mg/kg/injection, schedule: Q01DX010 (ip), vehicle: other): 100 % of control | T/C (dose: 0.75 mg/kg/injection, schedule: Q01DX010 (ip), vehicle: other): 99 % of control | T/C (dose: 0.75 mg/kg/injection, schedule: Q01DX Z (ip), vehicle: alkali diluted with saline): 120 % of control and 92 % of control | T/C (dose: 0.75 mg/kg/injection, schedule: Q01DX Z (ip), vehicle: saline): 95 % of control and 106 % of control | T/C (dose: 1.5 mg/kg/injection, schedule: Q01DX010 (ip), vehicle: other): 100 % of control | T/C (dose: 1.5 mg/kg/injection, schedule: Q01DX Z (ip), vehicle: alkali diluted with saline): 117 % of control and 92 % of control | T/C (dose: 1.5 mg/kg/injection, schedule: Q01DX Z (ip), vehicle: saline): 94 % of control and 100 % of control | T/C (dose: 3.0 mg/kg/injection, schedule: Q01DX Z (ip), vehicle: alkali diluted with saline): 97 % of control | T/C (dose: 3.0 mg/kg/injection, schedule: Q01DX Z (ip), vehicle: saline): 87 % of control and 99 % of control | T/C (dose: 4.0 mg/kg/injection, schedule: Q01DX Z (ip), vehicle: other): 91 % of control and 95 % of control

S=P(N1CCCC1)(N1CC1)N1CC1
T/C (dose: 0.03 mg/kg/injection, schedule: Q01DX Z (ip), vehicle: methylcellulose (MC)): 93 % of control | T/C (dose: 0.05 mg/kg/injection, schedule: Q01DX Z (ip), vehicle: methylcellulose (MC)): 91 % of control | T/C (dose: 0.1 mg/kg/injection, schedule: Q01DX Z (ip), vehicle: methylcellulose (MC)): 99 % of control

O=c1cn[nH]c(=O)[nH]1
T/C (dose: 125.0 mg/kg/injection, schedule: Q01DX010 (ip), vehicle: saline): 93 % of control | T/C (dose: 250.0 mg/kg/injection, schedule: Q01DX010 (ip), vehicle: saline): 91 % of control and 97 % of control | T/C (dose: 500.0 mg/kg/injection, schedule: Q01DX010 (ip), vehicle: saline): 86 % of control and 90 % of control

Cc1c(O)ccc(=O)n1O
T/C (dose: 49.0 mg/kg/injection, schedule: Q01DX Z (ip), vehicle: other): 98 % of control | T/C (dose: 73.0 mg/kg/injection, schedule: Q01DX Z (ip), vehicle: other): 86 % of control | T/C (dose: 110.0 mg/kg/injection, schedule: Q01DX Z (ip), vehicle: other): 114 % of control | T/C (dose: 165.0 mg/kg/injection, schedule: Q01DX Z (ip), vehicle: other): 110 % of control | T/C (dose: 247.0 mg/kg/injection, schedule: Q01DX Z (ip), vehicle: other): 96 % of control

N#[N+]c1cnc([O-])[nH]c1=O
T/C (dose: 0.16 mg/kg/injection, schedule: Q01DX Z (ip), vehicle: methylcellulose (MC)): 106 % of control | T/C (dose: 0.32 mg/kg/injection, schedule: Q01DX Z (ip), vehicle: methylcellulose (MC)): 103 % of control | T/C (dose: 0.63 mg/kg/injection, schedule: Q01DX Z (ip), vehicle: methylcellulose (MC)): 100 % of control

O=C1N(Cl)C(=O)C(c2ccc(Cl)cc2)(c2ccc(Cl)cc2)N1Cl
T/C (dose: 0.8 mg/kg/injection, schedule: Q01DX Z (ip), vehicle: methylcellulose (MC)): 90 % of control | T/C (dose: 1.6 mg/kg/injection, schedule: Q01DX Z (ip), vehicle: methylcellulose (MC)): 90 % of control | T/C (dose: 3.2 mg/kg/injection, schedule: Q01DX Z (ip), vehicle: methylcellulose (MC)): 86 % of control and 98 % of control

Nc1nc(=S)c2[nH]cnc2[nH]1
T/C (dose: 0.75 mg/kg/injection, schedule: Q01DX Z (ip), vehicle: carboxymethylcellulose (CMC)): 97 % of control | T/C (dose: 1.25 mg/kg/injection, schedule: Q01DX010 (ip), vehicle: saline): 99 % of control and 106 % of control | T/C (dose: 1.5 mg/kg/injection, schedule: Q01DX Z (ip), vehicle: carboxymethylcellulose (CMC)): 88 % of control | T/C (dose: 2.5 mg/kg/injection, schedule: Q01DX010 (ip), vehicle: saline): 90 % of control | T/C (dose: 2.5 mg/kg/injection, schedule: Q01DX Z (ip), vehicle: carboxymethylcellulose (CMC)): 102 % of control | T/C (dose: 5.0 mg/kg/injection, schedule: Q01DX010 (ip), vehicle: saline): 92 % of control | T/C (dose: 5.0 mg/kg/injection, schedule: Q01DX Z (ip), vehicle: carboxymethylcellulose (CMC)): 107 % of control | T/C [1]: 108 % of control | T/C [2]: 98 % of control | T/C [3]: 88 % of control

S=P(N1CCOCC1)(N1CC1)N1CC1
T/C (dose: 2.0 mg/kg/injection, schedule: Q01DX Z (ip), vehicle: carboxymethylcellulose (CMC)): 92 % of control | T/C (dose: 6.0 mg/kg/injection, schedule: Q01DX Z (ip), vehicle: carboxymethylcellulose (CMC)): 93 % of control | T/C (dose: 8.0 mg/kg/injection, schedule: Q01DX Z (ip), vehicle: carboxymethylcellulose (CMC)): 92 % of control | T/C [2]: 96 % of control | T/C (dose: 20.0 mg/kg/injection, schedule: Q01DX Z (ip), vehicle: carboxymethylcellulose (CMC)): 95 % of control

O=c1[nH]cc(F)c(=O)[nH]1
T/C (dose: 25.0 mg/kg/injection, schedule: Q01DX Z (ip), vehicle: saline): 92 % of control and 101 % of control | T/C (dose: 50.0 mg/kg/injection, schedule: Q01DX Z (ip), vehicle: saline): 87 % of control and 93 % of control and 98 % of control

CS(=O)(=O)OCCCCOS(C)(=O)=O
T/C (dose: 0.38 mg/kg/injection, schedule: Q01DX Z (ip), vehicle: methylcellulose (MC)): 88 % of control and 105 % of control | T/C (dose: 0.75 mg/kg/injection, schedule: Q01DX Z (ip), vehicle: methylcellulose (MC)): 93 % of control and 97 % of control | T/C (dose: 6.25 mg/kg/injection, schedule: Q01DX010 (ip), vehicle: saline): 97 % of control | T/C (dose: 12.5 mg/kg/injection, schedule: Q01DX010 (ip), vehicle: saline): 92 % of control and 93 % of control | T/C (dose: 12.5 mg/kg/injection, schedule: Q01DX Z (ip), vehicle: carboxymethylcellulose (CMC)): 106 % of control | T/C (dose: 25.0 mg/kg/injection, schedule: Q01DX010 (ip), vehicle: saline): 91 % of control | T/C (dose: 50.0 mg/kg/injection, schedule: Q01DX010 (ip), vehicle: saline): 102 % of control

CCCCNc1ncnc2c1cnn2C
T/C (dose: 31.25 mg/kg/injection, schedule: Q01DX010 (ip), vehicle: saline): 98 % of control and 102 % of control | T/C (dose: 62.5 mg/kg/injection, schedule: Q01DX010 (ip), vehicle: saline): 90 % of control

O=c1[nH]c(=O)n(C2CC(O)C(CO)O2)cc1I (configuration not stated)
T/C (dose: 3.75 mg/kg/injection, schedule: Q01DX Z (ip), vehicle: carboxymethylcellulose (CMC)): 102 % of control | T/C [1]: 108 % of control | T/C [3]: 108 % of control | T/C (dose: 30.0 mg/kg/injection, schedule: Q01DX Z (ip), vehicle: carboxymethylcellulose (CMC)): 106 % of control

Cn1cnc([N+](=O)[O-])c1Sc1nc(N)nc2nc[nH]c12
T/C (dose: 1.0 mg/kg/injection, schedule: Q01DX Z (ip), vehicle: methylcellulose (MC)): 92 % of control | T/C (dose: 2.0 mg/kg/injection, schedule: Q01DX Z (ip), vehicle: methylcellulose (MC)): 96 % of control | T/C (dose: 4.0 mg/kg/injection, schedule: Q01DX Z (ip), vehicle: methylcellulose (MC)): 109 % of control

OCC1OC(n2cnc3c(=S)nc[nH]c32)C(O)C1O (configuration not stated)
T/C (dose: 20.0 mg/kg/injection, schedule: Q01DX010 (ip), vehicle: saline): 101 % of control and 102 % of control | T/C (dose: 40.0 mg/kg/injection, schedule: Q01DX010 (ip), vehicle: saline): 91 % of control and 101 % of control | T/C (dose: 80.0 mg/kg/injection, schedule: Q01DX010 (ip), vehicle: saline): 98 % of control | T/C (dose: 160.0 mg/kg/injection, schedule: Q01DX010 (ip), vehicle: saline): 88 % of control and 93 % of control

C[C@]12C=CC(=O)C=C1CC[C@@H]1[C@@H]2[C@@H](O)C[C@@]2(C)[C@H]1CC[C@]2(O)C(=O)CO
T/C (dose: 12.5 mg/kg/injection, schedule: Q01DX010 (sc), vehicle: steriod suspending solution): 88 % of control | T/C (dose: 25.0 mg/kg/injection, schedule: Q01DX010 (sc), vehicle: steriod suspending solution): 99 % of control | T/C (dose: 50.0 mg/kg/injection, schedule: Q01DX010 (sc), vehicle: steriod suspending solution): 86 % of control | T/C (dose: 100.0 mg/kg/injection, schedule: Q01DX010 (sc), vehicle: steriod suspending solution): 90 % of control

O=C(Nc1ccc(NC2=NCCN2)cc1)c1ccc(C(=O)Nc2ccc(NC3=NCCN3)cc2)cc1
T/C (dose: 2.0 mg/kg/injection, schedule: Q01DX010 (ip), vehicle: saline): 167 % of control and 219 % of control | T/C (dose: 4.0 mg/kg/injection, schedule: Q01DX010 (ip), vehicle: saline): 248 % of control and 257 % of control | T/C (dose: 8.0 mg/kg/injection, schedule: Q01DX010 (ip), vehicle: saline): 188 % of control and 243 % of control | T/C (dose: 16.0 mg/kg/injection, schedule: Q01DX010 (ip), vehicle: saline): 101 % of control and 106 % of control

Nc1ncnc2[nH]ncc12
T/C (dose: 1.5 mg/kg/injection, schedule: Q01DX010 (ip), vehicle: saline): 91 % of control and 107 % of control | T/C (dose: 3.0 mg/kg/injection, schedule: Q01DX010 (ip), vehicle: saline): 96 % of control and 102 % of control | T/C (dose: 6.0 mg/kg/injection, schedule: Q01DX010 (ip), vehicle: saline): 99 % of control and 103 % of control | T/C (dose: 12.0 mg/kg/injection, schedule: Q01DX010 (ip), vehicle: saline): 89 % of control
